Consider one compound from US10414779B2, “Fused [1,2]imidazo[4,5-C] ring compounds substituted with guanidino groups” (3M INNOVATIVE PROPERTIES COMPANY, priority 2016, dated 2019).

Experiment [1] relates to Human peripheral blood mononuclear cells (PBMC). Kind of experiment: Cytokine induction in human cells (PBMC), IFN-gamma by multiplex bead assay. The format is cell-based. The settings on record: 21-24 hrs, lowest concentration inducing cytokine at least 2× negative control, tested at 10, 1, 0.1, 0.01, 0.001, 0.0001 micromolar. How it is done: (§1) Cytokine Induction in Human Cells
(§2) Whole blood was obtained from healthy human donors and collected by venipuncture into vacutainer tubes or syringes containing EDTA. Human peripheral blood mononuclear cells (PBMC) were purified from the whole blood by density gradient centrifugation. Histopaque 1077 (15 mL, Sigma, St. Louis, Mo.) was transferred to 6×50 mL sterile polypropylene conical tubes. The Histopaque was overlayed with 15-25 mL of blood diluted 1:2 in Hank's Balanced Salts Solution (HBSS) (Gibco, Life Technology, Grand Island N.Y.). The tubes were then centrifuged at 1370 rpm for 30 minutes at 20° C., with no brake (400×g, GH 3.8A Rotor).
(§3) The interface (buffy coat) containing the PBMC was collected and placed in a new sterile 50 mL conical polypropylene centrifuge tube. […]
(§4) The number of viable cells were determined by counting with a Miltenyi FACS instrument (Miltenyi Biotec Inc., San Diego, Calif.) or by using a hemacytometer. […] Ten microliters of the diluted cells were then applied to the hemacytometer, and the number of viable PBMC were determined by microscopy. […]
(§5) IFN-alpha cytokine levels (pg/mL) were measured by ELISA (human IFN-α, pan specific, Mabtech, Cinncinnati, Ohio), IFN-gamma, TNF-alpha, and IP-10 cytokine levels (pg/mL) were measured by multiplex bead assay (magnetic beads, R & D Systems Minneapolis, Minn.) according to the manufacturer's instructions. […]

Experiment [2] shares this test system. Kind of experiment: Cytokine induction in human cells (PBMC), IFN-alpha by ELISA. The format is cell-based. To be noted: 21-24 hrs, lowest concentration inducing cytokine at least 2× negative control, tested at 10, 1, 0.1, 0.01, 0.001, 0.0001 micromolar. How it is done:
as §1, §2, §3, §4, §5
(ELISA stands for enzyme-linked immunosorbent assay.)

Structures can show the parent of a compound that is named as a salt.

Take `N=C(N)NCCC[C@H]1COCc2nc3c(N)nc4ccccc4c3n21` [Example 1, (11S)-1-{3-[6-amino-10,11-dihydro-8H-[1,4]oxazino[4′,3′:1,2]imidazo[4,5-c]quinolin-11-yl]propyl}guanidine dihydrochloride]: the “MEC to Induce Cytokine IFN-gamma” value in experiment [1] came out at 1.0 µM. Further, in experiment [2], the “MEC to Induce Cytokine IFN-alpha” value came out at 1.0 µM.
